Assay results: US9884063B2, “Amido-substituted azole compounds” (Bayer Pharma Aktiengesellschaft, priority 2014, dated 2018)

Columns and labels:
[1] = molecular target: T1, TNKS2 (Homo sapiens, UniProt Q9H2K2); assay: Modified TNKS2 Assay 3 (BPS kit #80578, biotin-NAD+, 96 well); format: biochemical; details: human TNKS2, BPS kit #80578, 96 well
T1 sequence (Q9H2K2 1-1166): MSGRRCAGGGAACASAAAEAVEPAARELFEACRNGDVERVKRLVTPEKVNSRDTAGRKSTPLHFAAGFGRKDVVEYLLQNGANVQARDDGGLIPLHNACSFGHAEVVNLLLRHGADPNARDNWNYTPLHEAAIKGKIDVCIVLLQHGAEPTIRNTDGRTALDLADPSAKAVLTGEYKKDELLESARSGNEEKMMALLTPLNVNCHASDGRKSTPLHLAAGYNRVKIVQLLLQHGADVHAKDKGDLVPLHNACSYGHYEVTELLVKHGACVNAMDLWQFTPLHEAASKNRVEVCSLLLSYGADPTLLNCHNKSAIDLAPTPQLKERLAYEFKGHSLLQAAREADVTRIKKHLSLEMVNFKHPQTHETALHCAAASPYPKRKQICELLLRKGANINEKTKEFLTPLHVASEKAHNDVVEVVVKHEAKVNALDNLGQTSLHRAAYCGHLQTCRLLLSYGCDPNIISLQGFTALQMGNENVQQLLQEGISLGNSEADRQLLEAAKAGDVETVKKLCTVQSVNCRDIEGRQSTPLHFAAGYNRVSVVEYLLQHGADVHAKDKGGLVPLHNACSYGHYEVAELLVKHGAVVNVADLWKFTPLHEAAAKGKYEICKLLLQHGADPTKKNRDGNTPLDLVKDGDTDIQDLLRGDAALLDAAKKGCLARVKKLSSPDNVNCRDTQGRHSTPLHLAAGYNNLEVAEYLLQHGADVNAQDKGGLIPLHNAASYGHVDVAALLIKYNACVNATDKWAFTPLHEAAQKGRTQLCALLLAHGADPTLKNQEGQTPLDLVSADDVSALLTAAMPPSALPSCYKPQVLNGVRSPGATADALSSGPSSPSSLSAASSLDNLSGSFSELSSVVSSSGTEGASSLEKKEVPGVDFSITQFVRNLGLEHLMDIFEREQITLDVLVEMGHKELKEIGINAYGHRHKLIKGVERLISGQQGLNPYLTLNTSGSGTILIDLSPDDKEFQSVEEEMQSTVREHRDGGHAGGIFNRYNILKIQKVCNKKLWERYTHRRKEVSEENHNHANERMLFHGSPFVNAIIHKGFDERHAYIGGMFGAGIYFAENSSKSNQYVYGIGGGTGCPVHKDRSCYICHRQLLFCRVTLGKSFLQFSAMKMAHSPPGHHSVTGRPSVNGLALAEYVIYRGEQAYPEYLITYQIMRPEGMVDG
Procedure: (§1) The potency of the compounds against human TNKS2 according to the invention was assessed using a commercially available biotin/streptavidin binding assay kits from BPS Bioscience, San Diego, USA (Catalog #80578 for TNKS2). The incorporation of a biotin-labeled NAD+ during the […] catalyzed ribosylation of a suitable protein substrate was detected using with a streptavidin-HRP coupled chemi-luminescent readout. The intensity of the readout signal is proportional to the incorporated NAD^+. Inhibition of TNKS2 leads to a decreased incorporation of NAD^+ and consequently to a lower readout signal intensity in the corresponding TNKS2 assays. The concentration of a test compound that inhibits the enzyme activity by 50% (corresponds to half of the normed readout signal intensity) is reported as IC50. The assay conducted in a 96 well MTP format according to the manufacturer's protocol and using a BMG Pherastar MTP reader [BMG-Labtech, Offenburg, Germany].

[2] = tested on: wildtype Wnt signaling cascade; assay: HEK293 TOP Assay (Super TopFlash luciferase reporter, Wnt-3a stimulated); format: cell-based; details: Homo sapiens, HEK293, 16 h, HEK293 TOP reporter cell line, Wnt-3a at EC50, 16 hours incubation, compound dilution series 50 μM to 15 nM
In short: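 HEK293 cells stably carrying Super TopFlash (TOP) or FOP reporter, stimulated with recombinant human Wnt-3a (2500–5 ng/ml, two-fold steps). Both lines incubated in parallel with compound from 50 μM to 15 nM (3.16-fold) in CAFTY buffer pH 7.4 with 2 mM Ca2+ and 0.01% BSA; selectivity judged TOP vs FOP.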

[3] = molecular target: T2, TNKS1 (Homo sapiens, UniProt O95271); assay: Modified TNKS1 Assay 3 (BPS kit #80573, biotin-NAD+, 96 well); format: biochemical; details: human TNKS1, BPS kit #80573, 96 well
T2 sequence (O95271 1-1327): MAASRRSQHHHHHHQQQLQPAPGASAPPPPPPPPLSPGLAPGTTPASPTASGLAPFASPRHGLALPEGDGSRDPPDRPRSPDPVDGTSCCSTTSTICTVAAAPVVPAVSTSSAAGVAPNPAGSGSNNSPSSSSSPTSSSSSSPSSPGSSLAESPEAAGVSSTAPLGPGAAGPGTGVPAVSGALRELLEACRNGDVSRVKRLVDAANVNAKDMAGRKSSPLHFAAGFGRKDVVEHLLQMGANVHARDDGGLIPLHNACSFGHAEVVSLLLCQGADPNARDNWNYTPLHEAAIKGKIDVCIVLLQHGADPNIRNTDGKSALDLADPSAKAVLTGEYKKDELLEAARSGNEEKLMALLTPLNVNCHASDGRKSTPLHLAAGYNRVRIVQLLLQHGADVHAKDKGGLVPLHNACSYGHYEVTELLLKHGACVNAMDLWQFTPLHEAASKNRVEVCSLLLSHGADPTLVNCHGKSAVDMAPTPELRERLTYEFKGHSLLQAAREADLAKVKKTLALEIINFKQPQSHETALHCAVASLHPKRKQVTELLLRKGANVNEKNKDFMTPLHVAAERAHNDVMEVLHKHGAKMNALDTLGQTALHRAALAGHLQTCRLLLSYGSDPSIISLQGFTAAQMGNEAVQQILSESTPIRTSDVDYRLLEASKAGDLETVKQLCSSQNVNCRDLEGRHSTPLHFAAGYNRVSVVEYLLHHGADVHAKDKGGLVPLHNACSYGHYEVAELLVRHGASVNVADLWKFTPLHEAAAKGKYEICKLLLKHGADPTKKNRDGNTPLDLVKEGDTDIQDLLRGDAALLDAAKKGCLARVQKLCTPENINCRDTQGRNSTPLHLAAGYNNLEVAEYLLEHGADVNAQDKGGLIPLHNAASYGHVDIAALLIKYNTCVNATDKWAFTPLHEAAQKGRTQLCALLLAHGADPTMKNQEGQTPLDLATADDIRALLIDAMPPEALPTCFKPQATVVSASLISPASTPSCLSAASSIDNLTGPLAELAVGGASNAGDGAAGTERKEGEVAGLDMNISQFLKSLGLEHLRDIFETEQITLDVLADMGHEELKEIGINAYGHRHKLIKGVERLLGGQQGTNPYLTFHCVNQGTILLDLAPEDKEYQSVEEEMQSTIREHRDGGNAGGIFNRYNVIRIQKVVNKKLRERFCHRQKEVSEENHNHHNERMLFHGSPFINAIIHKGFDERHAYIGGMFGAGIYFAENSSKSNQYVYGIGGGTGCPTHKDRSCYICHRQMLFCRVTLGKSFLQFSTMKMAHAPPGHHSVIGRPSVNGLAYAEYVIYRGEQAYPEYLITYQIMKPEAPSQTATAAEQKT
Procedure: as §1, with “against human TNKS1 according to” for “against human TNKS2 according to”, “USA (Catalog #80573 for TNKS1).” for “USA (Catalog #80578 for TNKS2).”, “#80573 for TNKS1). The incorporation” for “#80578 for TNKS2). The incorporation”, “Inhibition of TNKS1 leads to” for “Inhibition of TNKS2 leads to”, “the corresponding TNKS1 assays. The” for “the corresponding TNKS2 assays. The”, “The assay was conducted in” for “The assay conducted in”

[4] = tested on: HEK293 FOP control reporter cell line; assay: HEK293 FOP Assay (FOP control vector luciferase reporter); format: cell-based; details: Homo sapiens; HEK293 FOP control reporter cell line, 16 hours incubation, compound dilution series 50 μM to 15 nM
In short: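 Stable HEK293 line carrying the FOP vector (randomized, non-functional TCF sites; Geneticin-selected) was run in parallel with the TOP line. Cells were plated 24 h ahead at 10000/well and given recombinant human Wnt-3a at 2500–5 ng/ml. Compounds were tested at 50 μM–15 nM (3.16-fold steps) in CAFTY buffer, pH 7.4, with 2 mM Ca2+ and 0.01% BSA.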

Row | Structure (SMILES) | IC50 [1] [nM] | IC50 [2] [nM] | IC50 [3] [nM] | IC50 [4] [nM]
1 | CNC(=O)c1nc[nH]c1C(=O)Nc1ccc(NC(=O)c2ccc(F)cc2Cl)c(F)c1 [Example 72, N^5-{4-[(2-chloro-4-fluorobenzoyl)amino]-3-fluorophenyl}-N^4-methyl-1H-imidazole-4,5-dicarboxamide] | 60 | 490 | – | –
2 | CC(C)(CNC(=O)c1[nH]cnc1C(=O)Nc1ccc(NC(=O)c2ccc(F)cc2Cl)cc1)N1CCCCC1 [Example 159, N^4-{4-[(2-chloro-4-fluorobenzoyl)amino]phenyl}-N^5-[2-methyl-2-(piperidin-1-yl)propyl]-1H-imidazole-4,5-dicarboxamide] | 2 | 90 | – | –
3 | CC(CN1CCOCC1)NC(=O)c1[nH]cnc1C(=O)Nc1ccc(NC(=O)c2ccccc2Cl)cc1 (stereo not drawn) [Example 162, N^4-{4-[(2-chlorobenzoyl)amino]phenyl}-N^5-[1-(morpholin-4-yl)propan-2-yl]-1H-imidazole-4,5-dicarboxamide] | 20 | 270 | – | –
4 | CC(CNC(=O)c1[nH]cnc1C(=O)Nc1ccc(NC(=O)c2ccc(F)cc2Cl)cc1)N1CCCCC1 (stereo not drawn) [Example 170, N^4-{4-[(2-chloro-4-fluorobenzoyl)amino]phenyl}-N^5-[2-(piperidin-1-yl)propyl]-1H-imidazole-4,5-dicarboxamide] | 2 | 180 | – | –
5 | CC(CNC(=O)c1[nH]cnc1C(=O)Nc1ccc(NC(=O)c2ccc(F)cc2Cl)cc1)N1CCN(C)CC1 (stereo not drawn) [Example 185, N^4-{4-[(2-chloro-4-fluorobenzoyl)amino]phenyl}-N^5-[2-(4-methylpiperazin-1-yl)propyl]-1H-imidazole-4,5-dicarboxamide] | 20 | 200 | – | –
6 | O=C(Nc1ccc(NC(=O)c2nc[nH]c2C(=O)NCCN2CCC(O)CC2)cc1)c1ccccc1Cl [Example 197, N^4-{4-[(2-chlorobenzoyl)amino]phenyl}-N^5-[2-(4-hydroxypiperidin-1-yl)ethyl]-1H-imidazole-4,5-dicarboxamide] | 1 | 140 | – | –
7 | CN(C)CC(C)(C)CNC(=O)c1nc[nH]c1C(=O)Nc1ccc(NC(=O)c2ccc(F)cc2Cl)cc1 [Example 396, N^5-{4-[(2-chloro-4-fluorobenzoyl)amino]phenyl}-N^4-[3-(dimethylamino)-2,2-dimethylpropyl]-1H-imidazole-4,5-dicarboxamide] | – | 340 | 180 | 25000
8 | CC1CCCC(C)N1CCNC(=O)c1nc[nH]c1C(=O)Nc1ccc(NC(=O)c2ccc(F)cc2Cl)cc1 (stereo not drawn) [Example 401, N^5-{4-[(2-chloro-4-fluorobenzoyl)amino]phenyl}-N^4-[2-(2,6-dimethylpiperidin-1-yl)ethyl]-1H-imidazole-4,5-dicarboxamide] | – | 330 | 180 | 21000

Further lines, with some results ahead:

Row | IC50 [1] [nM] | IC50 [2] [nM] | IC50 [3] [nM] | Structure (SMILES) | IC50 [4] [nM]
9 | – | 350 | 70 | O=C(Nc1ccc(NC(=O)c2[nH]cnc2C(=O)NCCCCCN2CCCC2)cc1)c1ccc(F)cc1Cl [Example 406, N^5-{4-[(2-chloro-4-fluorobenzoyl)amino]phenyl}-N^4-[5-(pyrrolidin-1-yl)pentyl]-1H-imidazole-4,5-dicarboxamide] | 26000
10 | – | 190 | 80 | CCN1CCC(CNC(=O)c2nc[nH]c2C(=O)Nc2ccc(NC(=O)c3ccc(F)cc3Cl)cc2)CC1 [Example 409, N^5-{4-[(2-chloro-4-fluorobenzoyl)amino]phenyl}-N^4-[(1-ethylpiperidin-4-yl)methyl]-1H-imidazole-4,5-dicarboxamide] | 32000
11 | – | 110 | 90 | CN1CCCCC1CNC(=O)c1nc[nH]c1C(=O)Nc1ccc(NC(=O)c2ccc(F)cc2Cl)cc1 (stereo not drawn) [Example 410, N^5-{4-[(2-chloro-4-fluorobenzoyl)amino]phenyl}-N^4-[(1-methylpiperidin-2-yl)methyl]-1H-imidazole-4,5-dicarboxamide] | 18000
12 | – | 270 | 50 | CN1CCC(NC(=O)c2nc[nH]c2C(=O)Nc2ccc(NC(=O)c3ccc(F)cc3Cl)cc2)CC1 [Example 414, N^5-{4-[(2-chloro-4-fluorobenzoyl)amino]phenyl}-N^4-(1-methylpiperidin-4-yl)-1H-imidazole-4,5-dicarboxamide] | 33000
